Where “and” joins values, the source holds several entries; their conditions need not be identical. Equal entries are not always repeated.
Experiments:
hCA I = hCA I (Homo sapiens, UniProt P00915); assay: stopped-flow CO2 hydrase assay, hCA I; assay type: biochemical; details: for Ki: stopped-flow CO2 hydrase assay, mean from 3 different assays
hCA II = hCA II (Homo sapiens, UniProt P00918); assay: stopped-flow CO2 hydrase assay, hCA II; assay type: biochemical; details: for Ki: stopped-flow CO2 hydrase assay, mean from 3 different assays, read-out: KI hCAII; for selectivity index (SI) toward hCA I / selectivity index (SI) towards hCA IX / selectivity index (SI) towards hCA XII: hCA II inhibitor; for selectivity index (SI) toward hCA I: hCA II versus hCA I; for selectivity index (SI) towards hCA IX: hCA II versus hCA IX; for selectivity index (SI) towards hCA XII: hCA II versus hCA XII
hCA IX = hCA IX (Homo sapiens, UniProt Q16790); assay: stopped-flow CO2 hydrase assay, hCA IX; assay type: biochemical; details: for selectivity index (SI) for hCA I: hCA IX inhibitor, hCA IX versus hCA I; for Ki: stopped-flow CO2 hydrase assay, mean from 3 different assays
hCA XII = hCA XII (Homo sapiens, UniProt O43570); assay: stopped-flow CO2 hydrase assay, hCA XII; assay type: biochemical; details: for Ki: stopped-flow CO2 hydrase assay, mean from 3 different assays
β-CA from E. coli = β-CA from E. coli (Escherichia coli, UniProt P61517); assay: stopped-flow CO2 hydrase assay, E. coli β-CA; assay type: biochemical
γ-CA from E. coli = γ-CA from E. coli (Escherichia coli, UniProt P0A9W9); assay type: biochemical; details: for Ki: stopped-flow CO2 hydrase assay, mean from 3 different assays; for selectivity index (SI) against BpsCAβ: E. coli γ versus BpsCAβ; for selectivity index (SI) against BpsCAγ: E. coli γ versus BpsCAγ; for selectivity index (SI) against E. coli β: E. coli γ versus E. coli β; for selectivity index (SI) against PgiCAγ: E. coli γ versus PgiCAγ
[1] = target: β-CA from Burkholderia pseudomallei (BpsCAβ) (Burkholderia pseudomallei, UniProt Q63Y17); assay type: biochemical; details: for Ki: read-out: KI BpsCAβ
BpsCAγ = BpsCAγ (Burkholderia pseudomallei, UniProt Q63SQ4); assay type: biochemical; details: read-out: KI BpsCAγ
[2] = target: γ-CA from Porphyromonas gingivalis (PgiCAγ) (Porphyromonas gingivalis, UniProt Q7MV79); assay type: biochemical; details: for Ki: stopped-flow CO2 hydrase assay, mean from 3 different assays
[3] = target: β-CA from Vibrio cholerae (VhCAβ) (Vibrio cholerae, UniProt A0A086SLX8); assay: biochemical
Sequence of β-CA from Vibrio cholerae (VhCAβ) (A0A086SLX8 entry or part of it): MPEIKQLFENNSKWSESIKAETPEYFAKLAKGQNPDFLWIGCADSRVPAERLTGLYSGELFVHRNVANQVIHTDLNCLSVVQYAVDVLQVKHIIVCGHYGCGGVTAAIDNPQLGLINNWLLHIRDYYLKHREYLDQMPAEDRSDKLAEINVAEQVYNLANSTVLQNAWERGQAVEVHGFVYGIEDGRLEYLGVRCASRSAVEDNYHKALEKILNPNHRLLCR

Sequence of β-CA from Burkholderia pseudomallei (BpsCAβ) (Q63Y17 1-256): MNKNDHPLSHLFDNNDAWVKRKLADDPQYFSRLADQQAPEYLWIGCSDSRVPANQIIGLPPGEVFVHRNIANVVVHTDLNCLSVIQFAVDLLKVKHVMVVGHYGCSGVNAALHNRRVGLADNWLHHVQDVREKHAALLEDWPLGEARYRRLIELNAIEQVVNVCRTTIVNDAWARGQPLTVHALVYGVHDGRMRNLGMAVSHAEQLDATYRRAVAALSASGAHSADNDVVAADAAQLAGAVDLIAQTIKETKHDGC
Sequence of γ-CA from E. coli (P0A9W9 whole entry): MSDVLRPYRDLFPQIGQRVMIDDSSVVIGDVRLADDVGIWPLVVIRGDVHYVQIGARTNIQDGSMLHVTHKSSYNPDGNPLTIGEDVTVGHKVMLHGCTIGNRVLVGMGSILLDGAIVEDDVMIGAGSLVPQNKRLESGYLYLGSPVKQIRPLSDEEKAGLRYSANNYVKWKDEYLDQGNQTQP
Sequence of hCA I (P00915 whole entry): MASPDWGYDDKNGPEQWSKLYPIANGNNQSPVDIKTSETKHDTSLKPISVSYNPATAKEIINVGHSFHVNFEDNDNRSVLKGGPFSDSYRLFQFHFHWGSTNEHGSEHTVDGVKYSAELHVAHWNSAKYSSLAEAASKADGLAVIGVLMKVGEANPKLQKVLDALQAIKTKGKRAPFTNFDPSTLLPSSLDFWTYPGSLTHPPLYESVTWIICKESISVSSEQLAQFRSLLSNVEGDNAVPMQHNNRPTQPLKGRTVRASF
Sequence of hCA XII (O43570 25-354): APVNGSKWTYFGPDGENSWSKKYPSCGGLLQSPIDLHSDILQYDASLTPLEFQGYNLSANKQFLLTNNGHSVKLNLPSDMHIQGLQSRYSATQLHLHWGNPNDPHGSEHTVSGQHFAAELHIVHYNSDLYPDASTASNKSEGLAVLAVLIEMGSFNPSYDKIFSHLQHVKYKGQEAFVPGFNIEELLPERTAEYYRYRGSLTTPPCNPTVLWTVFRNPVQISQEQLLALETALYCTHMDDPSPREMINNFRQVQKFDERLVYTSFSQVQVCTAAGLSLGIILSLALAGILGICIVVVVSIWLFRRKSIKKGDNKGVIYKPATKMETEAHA
Sequence of γ-CA from Porphyromonas gingivalis (PgiCAγ) (Q7MV79 entry or part of it): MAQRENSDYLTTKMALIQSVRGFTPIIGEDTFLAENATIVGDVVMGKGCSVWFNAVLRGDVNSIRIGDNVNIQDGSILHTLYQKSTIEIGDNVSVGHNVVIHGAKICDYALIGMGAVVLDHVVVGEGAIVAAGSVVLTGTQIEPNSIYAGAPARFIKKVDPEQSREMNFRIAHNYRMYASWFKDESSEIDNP
Sequence of BpsCAγ (Q63SQ4 1-174): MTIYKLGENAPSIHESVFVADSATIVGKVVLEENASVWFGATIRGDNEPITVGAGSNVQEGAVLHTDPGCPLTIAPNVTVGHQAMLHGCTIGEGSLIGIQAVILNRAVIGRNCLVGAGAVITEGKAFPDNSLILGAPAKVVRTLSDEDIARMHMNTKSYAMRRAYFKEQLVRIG
Sequence of β-CA from E. coli (P61517 whole entry): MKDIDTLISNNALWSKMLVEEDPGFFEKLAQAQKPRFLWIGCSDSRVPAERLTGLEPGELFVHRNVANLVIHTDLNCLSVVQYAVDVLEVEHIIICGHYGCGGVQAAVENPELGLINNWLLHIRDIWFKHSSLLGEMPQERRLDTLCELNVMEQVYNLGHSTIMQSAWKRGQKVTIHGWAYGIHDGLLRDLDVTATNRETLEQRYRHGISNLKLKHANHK

| Compound | Ki (hCA I) | Ki (hCA II) | Ki (hCA IX) | Ki (hCA XII) | Ki (β-CA from E. coli) | Ki (γ-CA from E. coli) | Ki [1] | Ki (BpsCAγ) | Ki [2] | Ki [3] | melting point | further results |
| --- | --- | --- | --- | --- | --- | --- | --- | --- | --- | --- | --- | --- |
| COC(=O)c1cn(CCS(N)(=O)=O)cc2c(=O)[nH]nc1-2 [Compound 1a, Methyl 3-oxo-5-(2-sulfamoylethyl)-3,5-dihydro-2H-pyrazolo[4,3-c]pyridine-7-carboxylate] | 8010 nM | 7330 nM | 97.9 nM | 282 nM | 862 nM | 61.8 nM | 654 nM | 913 nM | 783 nM | 2330 nM | > 300 °C | selectivity index (SI) for hCA I (hCA IX): 81.8 |
| COC(=O)c1cn(-c2ccc(S(N)(=O)=O)cc2)cc2c(=O)[nH]nc1-2 [Compound 1b, Methyl 3-oxo-5-(4-sulfamoylphenyl)-3,5-dihydro-2H-pyrazolo[4,3-c]pyridine-7-carboxylate] | 157 nM | 51.4 nM | 319 nM | 358 nM | 3460 nM | 57.8 nM | 229 nM | 513 nM | 91 nM | 844 nM | > 300 °C | decreased activity against hCA I (hCA I; compared with 1f): ~ 2.7 times; selectivity index (SI) against BpsCAβ (γ-CA from E. coli; E. coli γ-CA inhibitor): 3.96; selectivity index (SI) against BpsCAγ (γ-CA from E. coli; E. coli γ-CA inhibitor): 8.88; selectivity index (SI) against E. coli β (γ-CA from E. coli; E. coli γ-CA inhibitor): 59.8; selectivity index (SI) against PgiCAγ (γ-CA from E. coli; E. coli γ-CA inhibitor): 1.59 and 1.57 and 1.5; selectivity index (SI) against VhCAβ (γ-CA from E. coli; E. coli γ-CA inhibitor, E. coli γ versus VhCAβ): 14.6 |
| COC(=O)c1cn(-c2cccc(S(N)(=O)=O)c2)cc2c(=O)[nH]nc1-2 [Compound 1c, Methyl 3-oxo-5-(3-sulfamoylphenyl)-3,5-dihydro-2H-pyrazolo[4,3-c]pyridine-7-carboxylate] | 1440 nM | 247 nM | 590 nM | 143 nM | 3840 nM | 79.1 nM | 785 nM | 614 nM | 637 nM | 913 nM | > 300 °C |  |
| COC(=O)C1=CN(Cc2ccc(S(N)(=O)=O)cc2)C=C2C(=O)N=NC21 (stereo not drawn) [Compound 1d, 3-oxo-5-(4-sulfamoylbenzyl)-3,5-dihydro-2H-pyrazolo[4,3-c]pyridine-7-carboxylate] |  |  |  |  |  |  |  |  |  |  | > 300 °C |  |
| COC(=O)c1cn(CCc2ccc(S(N)(=O)=O)cc2)cc2c(=O)[nH]nc1-2 [Compound 1e, Methyl 3-oxo-5-(4-sulfamoylphenethyl)-3,5-dihydro-2H-pyrazolo[4,3-c]pyridine-7-carboxylate] | 864 nM | 658 nM | 849 nM | 397 nM | 3140 nM | 58.1 nM | 683 nM | 1340 nM | 96.1 nM | 840 nM | > 300 °C | selectivity index (SI) against BpsCAβ (γ-CA from E. coli; E. coli γ-CA inhibitor): 3.96; selectivity index (SI) against BpsCAγ (γ-CA from E. coli; E. coli γ-CA inhibitor): 8.88; selectivity index (SI) against E. coli β (γ-CA from E. coli; E. coli γ-CA inhibitor): 59.8; selectivity index (SI) against PgiCAγ (γ-CA from E. coli; E. coli γ-CA inhibitor): 1.59 |
| COC(=O)c1cn(CC(=O)Nc2ccc(S(N)(=O)=O)cc2)cc2c(=O)[nH]nc1-2 [Compound 1f] | 58.8 nM | 6.6 nM | 907 nM | 475 nM | 3650 nM | 66.8 nM | 236 nM | 2180 nM | 668 nM | 467 nM | > 300 °C | selectivity index (SI) toward hCA I (hCA II): 9; selectivity index (SI) towards hCA IX (hCA II): 137.5; selectivity index (SI) towards hCA XII (hCA II): 71.9 |
| CC(=O)N1CC(Nc2ccc(S(N)(=O)=O)cc2)=CC1=O [Compound 1g, 4-((1-Acetyl-5-oxo-2,5-dihydro-1H-pyrrol-3-yl)amino)benzenesulfonamide] | 66.8 nM | 41.7 nM | 294 nM | 509 nM | 454 nM | 205 nM | 664 nM | 97.1 nM | 83.1 nM | 1450 nM | 285 to 287 °C | selectivity index (SI) towards VhCAβ ([2]; PgiCAγ inhibitor, PgiCAγ versus VhCAβ): 17.4 |
| CC(=O)N1CC(Nc2cccc(S(N)(=O)=O)c2)=CC1=O [Compound 1h, 3-((1-Acetyl-5-oxo-2,5-dihydro-1H-pyrrol-3-yl)amino)benzenesulfonamide] | 136 nM | 61.7 nM | 94.3 nM | 714 nM | 712 nM | 524 nM | 2960 nM | 833 nM | 90 nM | 2620 nM |  |  |
| Cc1cc(O)cc(=O)n1CCS(N)(=O)=O [Compound 1i, 2-(4-hydroxy-6-methyl-2-oxopyridin-1(2H)-yl)ethane-1-sulfonamide] | 5440 nM | 6790 nM | 79.6 nM | 105 nM | 3050 nM | 92.7 nM | 96.4 nM | 192 nM | 95.6 nM | 2240 nM | 243 to 245 °C | selectivity index (SI) for hCA I (hCA IX): 74.9; selectivity index (SI) against VhCAβ [1]: 23.2; selectivity index (SI) against the β-CA from E. coli [1]: 31.6 |
| NS(=O)(=O)CCNC=C1C(=O)Oc2ccccc2C1=O [Compound 1j, 2-(((2,4-dioxochroman-3-ylidene)methyl)amino)ethane-1-sulfonamide] | 3860 nM | 5710 nM | 97.8 nM | 285 nM | 94.9 nM | 67.1 nM | 789 nM | 625 nM | 84.3 nM | 642 nM | 197 to 199 °C |  |
| CC12CC(c3ccccc3O1)C(C(N)=O)C(=O)N2CCc1ccc(S(N)(=O)=O)cc1 (stereo not drawn) [Compound 1k, 2-methyl-4-oxo-3-(4-sulfamoylphenethyl)-3,4,5,6-tetrahydro-2H-2,6-methanobenzo[g][1,3]oxazocine-5-carboxamide] | 88.3 nM | 5.6 nM | 421 nM | 34.5 nM | 3860 nM | 63.5 nM | 212 nM | 952 nM | 202 nM | 356 nM | 225 to 227 °C | selectivity index (SI) toward hCA I (hCA II): 15.8; selectivity index (SI) towards hCA IX (hCA II): 75.25; selectivity index (SI) towards hCA XII (hCA II): 6; selectivity index (SI) towards hCA IX (hCA XII; hCA XII inhibitor, hCA XII versus hCA IX): 12.2 |

— publication PMC8955975, “Pyrazolo[4,3-c]pyridine Sulfonamides as Carbonic Anhydrase Inhibitors: Synthesis, Biological and In Silico Studies” (Pharmaceuticals, 2022)
